From ChEMBL document CHEMBL3868615, “Decahydrobenzoquinolin-5-one sigma receptor ligands: Divergent development of both sigma 1 and sigma 2 receptor selective examples” (Bioorg Med Chem Lett, 2016)

Columns and labels:
[1] = biological target: Delta-type opioid receptor (Homo sapiens, UniProt P41143); experiment: Displacement of [3H]DADLE from human DOR expressed in HEK cells measured after 90 mins by microbeta scintillation counting method; assay type: cell-based, HEK293
[2] = Displacement of [3H]DTG from sigma2 receptor in rat PC12 cells measured after 90 mins by microbeta scintillation counting method; assay type: cell-based; conditions: pc-12
[3] = biological target: 5-hydroxytryptamine receptor 3A (Homo sapiens, UniProt P46098); experiment: Displacement of [3H]GR65630 from human 5-HT3 receptor expressed in HEK-T cells measured after 90 mins by microbeta scintillation counting method; assay type: cell-based
5-hydroxytryptamine receptor 3A, sequence (P46098 whole entry): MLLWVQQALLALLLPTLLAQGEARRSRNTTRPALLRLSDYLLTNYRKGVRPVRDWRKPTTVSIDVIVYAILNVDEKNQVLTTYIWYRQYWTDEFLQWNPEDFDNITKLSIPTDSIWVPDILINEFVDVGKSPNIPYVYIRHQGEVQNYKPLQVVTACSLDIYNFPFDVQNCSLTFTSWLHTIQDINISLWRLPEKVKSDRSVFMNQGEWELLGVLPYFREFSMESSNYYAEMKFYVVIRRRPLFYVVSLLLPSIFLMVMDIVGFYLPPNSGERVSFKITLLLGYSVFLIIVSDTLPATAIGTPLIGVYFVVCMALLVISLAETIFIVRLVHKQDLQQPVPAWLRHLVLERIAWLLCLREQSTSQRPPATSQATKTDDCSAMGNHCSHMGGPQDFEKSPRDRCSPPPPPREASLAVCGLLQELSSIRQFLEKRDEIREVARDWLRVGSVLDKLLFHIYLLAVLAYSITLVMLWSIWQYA

[4] = biological target: 5-hydroxytryptamine receptor 5A (Homo sapiens, UniProt P47898); experiment: Displacement of [3H]LSD from human 5-HT5A receptor expressed in Flp-In CHO cells measured after 90 mins by microbeta scintillation counting method; assay type: cell-based
5-hydroxytryptamine receptor 5A, sequence (P47898 whole entry): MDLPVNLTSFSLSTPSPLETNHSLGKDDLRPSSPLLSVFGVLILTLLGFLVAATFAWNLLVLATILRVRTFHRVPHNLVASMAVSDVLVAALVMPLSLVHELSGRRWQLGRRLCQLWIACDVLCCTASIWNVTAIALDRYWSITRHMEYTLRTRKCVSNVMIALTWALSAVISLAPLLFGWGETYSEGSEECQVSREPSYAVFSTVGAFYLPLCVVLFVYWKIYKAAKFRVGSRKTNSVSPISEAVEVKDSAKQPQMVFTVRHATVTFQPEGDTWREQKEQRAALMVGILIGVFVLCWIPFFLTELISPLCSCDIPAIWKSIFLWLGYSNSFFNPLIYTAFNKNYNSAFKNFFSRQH

[5] = biological target: 5-hydroxytryptamine receptor 7 (Homo sapiens, UniProt P34969); experiment: Displacement of [3H]LSD from human 5-HT7 receptor expressed in HEK cells measured after 90 mins by microbeta scintillation counting method; assay type: cell-based, HEK293
5-hydroxytryptamine receptor 7, sequence (P34969 whole entry): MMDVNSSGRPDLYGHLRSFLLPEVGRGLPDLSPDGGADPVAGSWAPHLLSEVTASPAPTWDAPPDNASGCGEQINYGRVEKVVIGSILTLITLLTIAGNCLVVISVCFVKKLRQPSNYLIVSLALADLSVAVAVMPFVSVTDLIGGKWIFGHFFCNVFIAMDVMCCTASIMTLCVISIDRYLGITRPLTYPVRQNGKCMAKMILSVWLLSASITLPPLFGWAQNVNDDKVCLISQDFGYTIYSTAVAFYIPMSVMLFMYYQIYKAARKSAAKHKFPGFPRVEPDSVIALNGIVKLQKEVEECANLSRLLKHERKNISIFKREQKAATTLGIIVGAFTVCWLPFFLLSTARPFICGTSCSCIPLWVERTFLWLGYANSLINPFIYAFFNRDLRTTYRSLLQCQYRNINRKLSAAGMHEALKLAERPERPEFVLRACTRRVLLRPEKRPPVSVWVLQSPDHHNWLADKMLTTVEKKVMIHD

[6] = biological target: Beta-2 adrenergic receptor (Homo sapiens, UniProt P07550); experiment: Displacement of [3H]CGP12177 from human beta2 receptor expressed in HEK Flp-In cells measured after 90 mins by microbeta scintillation counting method; assay type: cell-based, HEK293
Beta-2 adrenergic receptor, sequence (P07550 whole entry): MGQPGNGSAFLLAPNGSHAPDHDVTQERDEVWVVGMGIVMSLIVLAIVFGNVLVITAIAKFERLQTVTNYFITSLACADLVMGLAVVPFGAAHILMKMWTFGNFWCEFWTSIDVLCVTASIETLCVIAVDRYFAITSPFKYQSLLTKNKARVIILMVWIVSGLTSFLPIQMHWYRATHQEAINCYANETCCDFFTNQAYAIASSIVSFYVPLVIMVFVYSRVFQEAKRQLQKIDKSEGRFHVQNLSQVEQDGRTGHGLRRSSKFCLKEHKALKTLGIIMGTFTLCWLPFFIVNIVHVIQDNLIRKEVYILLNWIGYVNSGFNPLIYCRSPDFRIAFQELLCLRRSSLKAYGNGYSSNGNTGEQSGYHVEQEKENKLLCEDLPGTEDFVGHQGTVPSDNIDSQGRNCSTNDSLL

D(3) dopamine receptor = D(3) dopamine receptor (Homo sapiens, UniProt P35462); experiment: Displacement of [3H]N-methylspiperone from D3 receptor (unknown origin) expressed in HEK-T cells measured after 90 mins by microbeta scintillation counting method; assay type: cell-based
D(3) dopamine receptor, sequence (P35462 whole entry): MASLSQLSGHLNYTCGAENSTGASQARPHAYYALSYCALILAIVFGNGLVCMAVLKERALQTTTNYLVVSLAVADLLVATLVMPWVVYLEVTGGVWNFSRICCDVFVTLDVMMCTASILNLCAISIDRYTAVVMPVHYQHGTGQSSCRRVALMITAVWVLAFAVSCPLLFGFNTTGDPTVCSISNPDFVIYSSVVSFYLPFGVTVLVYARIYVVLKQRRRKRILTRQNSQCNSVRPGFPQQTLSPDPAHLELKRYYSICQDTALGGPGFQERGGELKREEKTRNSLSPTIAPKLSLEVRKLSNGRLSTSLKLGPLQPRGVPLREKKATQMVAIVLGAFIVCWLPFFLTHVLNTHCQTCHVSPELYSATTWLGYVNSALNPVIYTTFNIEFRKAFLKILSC

D(4) dopamine receptor = D(4) dopamine receptor (Homo sapiens, UniProt P21917); experiment: Displacement of [3H]N-methylspiperone from human D4 receptor measured after 90 mins by microbeta scintillation counting method
D(4) dopamine receptor, sequence (P21917 whole entry): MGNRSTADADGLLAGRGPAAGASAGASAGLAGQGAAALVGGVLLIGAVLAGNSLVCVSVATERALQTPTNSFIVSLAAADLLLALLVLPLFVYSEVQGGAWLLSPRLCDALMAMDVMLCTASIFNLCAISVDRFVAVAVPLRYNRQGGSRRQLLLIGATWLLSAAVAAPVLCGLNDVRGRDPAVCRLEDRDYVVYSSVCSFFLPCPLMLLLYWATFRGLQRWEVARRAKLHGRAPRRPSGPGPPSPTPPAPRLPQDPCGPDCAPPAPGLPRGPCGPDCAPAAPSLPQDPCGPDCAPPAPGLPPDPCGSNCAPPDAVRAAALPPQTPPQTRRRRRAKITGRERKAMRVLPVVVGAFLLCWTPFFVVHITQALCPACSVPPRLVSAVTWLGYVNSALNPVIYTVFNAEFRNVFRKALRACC

Histamine H3 receptor [7] = biological target: T1, Histamine H3 receptor (Homo sapiens, UniProt Q9Y5N1); experiment: Displacement of [3H]alpha-methylhistamine from human H3 receptor expressed in HEK Flp-In cells measured after 90 mins by microbeta scintillation counting method; assay type: cell-based, HEK293
T1 sequence (Q9Y5N1 whole entry): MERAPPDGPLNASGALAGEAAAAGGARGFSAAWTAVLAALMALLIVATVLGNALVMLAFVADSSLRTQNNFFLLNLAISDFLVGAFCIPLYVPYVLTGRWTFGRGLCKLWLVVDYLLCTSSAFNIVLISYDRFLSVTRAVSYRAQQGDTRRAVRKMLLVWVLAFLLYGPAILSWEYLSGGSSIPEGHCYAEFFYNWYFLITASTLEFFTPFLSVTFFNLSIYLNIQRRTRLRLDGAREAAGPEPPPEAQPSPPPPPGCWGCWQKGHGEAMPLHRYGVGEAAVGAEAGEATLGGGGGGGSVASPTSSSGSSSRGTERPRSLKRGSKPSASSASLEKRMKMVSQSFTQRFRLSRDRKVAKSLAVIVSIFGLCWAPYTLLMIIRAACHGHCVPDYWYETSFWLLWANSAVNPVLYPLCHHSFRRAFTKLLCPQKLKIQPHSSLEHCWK

Histamine H4 receptor = Histamine H4 receptor (Homo sapiens, UniProt Q9H3N8); experiment: Displacement of [3H]Histamine from H4 receptor (unknown origin) measured after 90 mins by microbeta scintillation counting method
[8] = biological target: Muscarinic acetylcholine receptor M2 (Homo sapiens, UniProt P08172); experiment: Binding affinity to human M2 receptor expressed in CHO cells measured after 90 mins by radioligand binding assay; assay type: cell-based
Muscarinic acetylcholine receptor M2, sequence (P08172 whole entry): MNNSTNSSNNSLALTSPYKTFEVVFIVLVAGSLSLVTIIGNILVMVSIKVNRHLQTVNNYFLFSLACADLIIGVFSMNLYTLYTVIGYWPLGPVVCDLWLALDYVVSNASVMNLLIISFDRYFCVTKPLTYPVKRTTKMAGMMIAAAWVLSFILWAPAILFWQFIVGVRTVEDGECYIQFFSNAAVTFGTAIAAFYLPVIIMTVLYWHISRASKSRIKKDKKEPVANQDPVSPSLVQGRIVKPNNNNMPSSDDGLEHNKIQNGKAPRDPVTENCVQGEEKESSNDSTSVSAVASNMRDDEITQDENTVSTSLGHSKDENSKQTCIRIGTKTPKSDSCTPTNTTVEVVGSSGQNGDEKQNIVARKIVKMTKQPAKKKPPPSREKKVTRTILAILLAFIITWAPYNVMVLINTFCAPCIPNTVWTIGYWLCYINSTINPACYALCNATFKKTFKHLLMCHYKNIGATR

[9] = biological target: T2, Muscarinic acetylcholine receptor M3 (Homo sapiens, UniProt P20309); experiment: Binding affinity to human M3 receptor expressed in CHO cells measured after 90 mins by radioligand binding assay; assay type: cell-based
Target sequence in this assay (P20309 whole entry): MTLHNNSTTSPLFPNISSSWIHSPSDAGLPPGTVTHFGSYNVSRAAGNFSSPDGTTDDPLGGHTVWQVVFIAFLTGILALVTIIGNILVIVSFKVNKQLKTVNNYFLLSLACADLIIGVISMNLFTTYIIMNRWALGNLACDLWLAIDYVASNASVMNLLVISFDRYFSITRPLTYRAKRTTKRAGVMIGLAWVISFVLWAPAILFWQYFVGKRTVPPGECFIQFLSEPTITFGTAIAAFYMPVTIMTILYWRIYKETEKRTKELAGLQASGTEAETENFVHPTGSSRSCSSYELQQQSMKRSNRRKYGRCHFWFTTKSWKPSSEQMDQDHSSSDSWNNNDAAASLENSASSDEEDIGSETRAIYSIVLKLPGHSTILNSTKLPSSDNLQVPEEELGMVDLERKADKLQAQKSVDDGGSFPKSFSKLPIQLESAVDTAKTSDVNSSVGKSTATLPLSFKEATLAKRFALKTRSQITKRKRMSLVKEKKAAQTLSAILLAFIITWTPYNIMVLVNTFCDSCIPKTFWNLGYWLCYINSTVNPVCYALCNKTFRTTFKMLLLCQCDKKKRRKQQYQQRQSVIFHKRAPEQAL

[10] = biological target: Muscarinic acetylcholine receptor M5 (Homo sapiens, UniProt P08912); experiment: Binding affinity to human M5 receptor expressed in CHO cells measured after 90 mins by radioligand binding assay; assay type: cell-based
[11] = biological target: T2, Muscarinic acetylcholine receptor M3; experiment: Binding affinity to human M3 receptor expressed in CHO cells at 10 uM measured after 90 mins by radioligand binding assay relative to control; assay type: cell-based
Target sequence in this assay (P20309 whole entry, looked up): as the sequence (P20309 whole entry) above

[12] = biological target: Muscarinic acetylcholine receptor M5 (Homo sapiens) (UniProt P08912); experiment: Binding affinity to human M5 receptor expressed in CHO cells at 10 uM measured after 90 mins by radioligand binding assay relative to control; assay type: cell-based
[13] = biological target: 5-hydroxytryptamine receptor 2C (Homo sapiens) (UniProt P28335); conditions: HEK293, 10 uM
[14] = biological target: Sodium-dependent dopamine transporter (Homo sapiens, UniProt Q01959); conditions: HEK293, 10 uM
Histamine H3 receptor [15] = biological target: T1, Histamine H3 receptor; conditions: HEK293, 10 uM
[16] = biological target: Sigma non-opioid intracellular receptor 1 (Cavia porcellus) (UniProt Q60492); conditions: 10 uM
Sigma non-opioid intracellular receptor 1 (Cavia porcellus), sequence (Q60492 whole entry): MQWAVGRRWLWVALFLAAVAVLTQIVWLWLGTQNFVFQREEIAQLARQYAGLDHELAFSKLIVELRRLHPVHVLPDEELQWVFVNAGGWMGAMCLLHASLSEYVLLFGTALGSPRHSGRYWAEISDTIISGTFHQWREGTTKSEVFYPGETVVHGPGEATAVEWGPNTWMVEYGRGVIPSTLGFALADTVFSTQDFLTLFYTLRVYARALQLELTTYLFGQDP

[17] = biological target: 5-hydroxytryptamine receptor 2B (Homo sapiens, UniProt P41595); conditions: HEK293, 10 uM
PC-12 = experiment: Selectivity ratio of Ki for guinea pig sigma1 receptor to Ki for sigma2 receptor in rat PC12 cells; assay type: cell-based
[18] = biological target: Alpha-2A adrenergic receptor (Homo sapiens) (UniProt P08913); conditions: MDCK, 10 uM
[19] = biological target: Alpha-2B adrenergic receptor (Homo sapiens) (UniProt P18089); conditions: HEK-T, 10 uM
[20] = biological target: Alpha-2C adrenergic receptor (Homo sapiens) (UniProt P18825); conditions: MDCK, 10 uM
[21] = biological target: Kappa-type opioid receptor (Homo sapiens, UniProt P41145); conditions: HEKT, 10 uM
Mu-type opioid receptor = Mu-type opioid receptor (Homo sapiens, UniProt P35372); conditions: HEK293, 10 uM

Delta-type opioid receptor, sequence (P41143 whole entry): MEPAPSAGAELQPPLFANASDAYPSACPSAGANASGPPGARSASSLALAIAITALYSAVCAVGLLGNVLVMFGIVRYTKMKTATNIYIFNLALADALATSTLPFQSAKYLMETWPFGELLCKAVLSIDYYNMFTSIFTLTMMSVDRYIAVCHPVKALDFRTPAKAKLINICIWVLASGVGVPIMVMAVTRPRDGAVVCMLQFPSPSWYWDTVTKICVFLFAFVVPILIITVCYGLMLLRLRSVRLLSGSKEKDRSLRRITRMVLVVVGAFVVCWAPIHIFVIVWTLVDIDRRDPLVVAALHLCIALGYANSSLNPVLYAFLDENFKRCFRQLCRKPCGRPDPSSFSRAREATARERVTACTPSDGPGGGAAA

Row | Compound | Ki [1] | Ki [2] | Ki [3] | Ki [4] | Ki [5] | Ki [6] | Ki (D(3) dopamine receptor) | Ki (D(4) dopamine receptor) | Ki (Histamine H3 receptor [7]) | Ki (Histamine H4 receptor) | Ki [8] | Ki [9] | Ki [10] | inhibition [16] | also measured
1 | CN1CC[C@H]2CC(=O)[C@H](Cc3ccccc3)[C@H]3CCC[C@@H]1[C@H]23 | > 10 µM | 0.148 µM | > 10 µM | > 10 µM | > 10 µM | > 10 µM | > 10 µM | > 10 µM | 0.814 µM | > 10 µM | > 10 µM | 0.661 µM | 3.49 µM | > 50% | Activity [11]: > 50%; Activity [12]: > 50%; inhibition [13]: > 50%; inhibition [14]: > 50%; inhibition (Histamine H3 receptor [15]): > 50%; inhibition [17]: > 50%
2 | CCCN1CC[C@H]2c3cc4ccc(C(F)(F)F)cc4nc3[C@H](CC)[C@H]3CCC[C@@H]1[C@@H]32 | > 10 µM | 0.015 µM | > 10 µM | > 10 µM | > 10 µM | > 10 µM | > 10 µM | > 10 µM | > 10 µM | > 10 µM | > 10 µM | > 10 µM | > 10 µM | > 50% | Ratio Ki (PC-12): 28; inhibition [18]: > 50%; inhibition [19]: > 50%; inhibition [20]: > 50%; inhibition [21]: > 50%; inhibition (Mu-type opioid receptor): > 50%
